# Laboratory results published in PMC11355918, “Inhibition of Soluble Epoxide Hydrolase by Cembranoid Diterpenes from Soft Coral Sinularia maxima: Enzyme Kinetics, Molecular Docking, and Molecular Dynamics” (Marine Drugs, 2024).
# Like-named read-outs stand apart in the source and are kept apart here.
# How the values were obtained:
# sEH = conditions: cited from earlier work
# recombinant human sEH [1] = target: T1, recombinant human sEH (Homo sapiens, UniProt P34913); experiment: biochemical; conditions: PHOME substrate, 37 °C, 60 min, mean ± SD (n = 3); read-out: IC50 (sEH inhibitory effect)
# T1 sequence (P34913 1-555): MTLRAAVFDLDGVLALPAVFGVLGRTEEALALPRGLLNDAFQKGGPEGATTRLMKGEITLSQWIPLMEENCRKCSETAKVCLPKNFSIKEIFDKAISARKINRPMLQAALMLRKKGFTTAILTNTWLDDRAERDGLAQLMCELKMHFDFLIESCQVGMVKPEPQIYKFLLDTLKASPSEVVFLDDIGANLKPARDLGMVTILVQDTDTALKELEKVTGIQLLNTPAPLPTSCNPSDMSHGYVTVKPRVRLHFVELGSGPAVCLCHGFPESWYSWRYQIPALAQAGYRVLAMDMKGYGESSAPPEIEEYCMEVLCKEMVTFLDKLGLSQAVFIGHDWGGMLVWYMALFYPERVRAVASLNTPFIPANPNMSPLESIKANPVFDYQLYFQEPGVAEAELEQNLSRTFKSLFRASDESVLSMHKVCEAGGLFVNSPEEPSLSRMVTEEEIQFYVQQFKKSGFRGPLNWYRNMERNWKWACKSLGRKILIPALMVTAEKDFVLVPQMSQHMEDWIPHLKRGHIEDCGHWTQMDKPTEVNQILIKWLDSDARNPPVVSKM
# Description: Bis-Tris (B9754) was purchased from Sigma-Aldrich (St. Louis, MO, USA).
# The sEH inhibition assay was performed as described in a previous study, with slight modifications. In 96-well plates, separate mixtures were prepared for each test compound, containing 130 µL of sEH in Bis-Tris buffer with HCl (pH 7.0, containing 0.1% bovine serum albumin) and 20 µL of the test compound (10 mM, diluted in DMSO). Subsequently, 50 µL of PHOME, which serves as a substrate, was added to each well. The mixtures were then incubated at 37 °C, and fluorescence was monitored using the VICTOR Nivo multimode plate reader (PerkinElmer, Waltham, MA, USA) for 60 min, with excitation and emission wavelengths of 330 nm and 460 nm, respectively. […] The inhibitory activity was calculated using the following equation:Inhibitory activity (%) = [1 − (ΔI/ΔC)] × 100%, where ΔI and ΔC are the fluorescence readings of the inhibitor and the control after 60 min, respectively. IC50 values were calculated using SigmaPlot 10.0 (Systat Software, CA, USA). Data are presented as means ± standard deviations from three independent experiments (n = 3, p < 0.05).
# recombinant human sEH [2] = target: T1, recombinant human sEH; experiment: Enzyme kinetics of sEH inhibition (Lineweaver-Burk and Dixon plots); type: biochemical; conditions: for Ki: Determined using Dixon plots, read-out: Ki (inhibition constant); for Inhibition Type: Determined using Lineweaver-Burk plots, PHOME 0.1-0.8 mM
# Description: The inhibition type of a compound provides insight into how it interacts with the enzyme. […] PHOME concentrations of 0.1, 0.2, 0.4, and 0.8 mM were used, along with compound 3 concentrations of 0, 15, 30, 60, and 90 µM, and compound 9 concentrations of 0, 20, 40, 60, and 100 µM. In the Lineweaver–Burk method, competitive and non-competitive inhibition is indicated by a series of straight lines intersecting at the same point on the y- and x-axes, respectively. […] In most cases, this implies that these inhibitors bind to an allosteric site on the enzyme rather than the active site, thereby preventing the enzyme from functioning regardless of the substrate concentration.
# The inhibition constant (Ki) is a measure of the binding affinity of the inhibitor for the enzyme, with a lower value indicating a stronger affinity. Dixon plots were used to determine the Ki values for the compounds.
# Enzyme kinetics were analyzed using Lineweaver–Burk and Dixon plots. This approach helped determine the mode of inhibition and the inhibition constant (Ki) at various substrate concentrations, both in the absence (0 μM) and presence of inhibitors. Data were plotted using Microsoft Excel 365.
# [3] = protostane-type triterpenoids from Alisma orientale, read-out: IC50 (sEH inhibition)
Molecule,IC50 (recombinant human sEH [1]),also measured
3β-hydroxy-25-anhydro-alisol F,,IC50 (sEH; [3]): 10.1 ± 1.12 µM
3β-hydroxy-alisol G,,IC50 (sEH; [3]): 30.4 ± 2.65 µM
C[C@@H]1CC[C@]2(C(=O)O)CC[C@]3(C)C(=CC[C@@H]4[C@@]5(C)CC(=O)[C@H](O)C(C)(C)[C@@H]5CC[C@]43C)[C@@H]2[C@]1(C)O [2-oxopomolic acid],,"IC50 (sEH; triterpenoid from Malus domestica, read-out: IC50 (sEH inhibitory activity)): 11.4 ± 2.7 µM"
C=C(C)[C@@H](O)[C@@H](O)C[C@@H](C)C1=C2CC[C@H]3[C@@]4(C)CCC(=O)C(C)(C)[C@@H]4CC[C@]3(C)[C@@]2(C)CC1 [11-deoxy-25-anhydro alisol E],,"IC50 (sEH; protostane-type triterpenoids, read-out: IC50 (sEH inhibitory effects)): 5.94 ± 0.54 µM"
"C=C(C)[C@H]1C/C=C(\C(=O)OC)CC(=O)C[C@@](C)(O)[C@@H](O)C2=CC(C(=O)OC)=C(C1)O2 [Compound 1, sinumaximol A]",> 100 µM,
"C=C(C)C1CCC2=CC(CC(C)(O)C(O)C3=CC(C(=O)OC)=C(C1)O3)OC2=O (stereo not drawn) [Compound 2, sinumaximol B]",> 100 µM,
"C=C(C)C1CCC23OC2C(CC(C)(O)C=C2C=C(C(=O)OC)C(OC)(C1)O2)OC3=O (stereo not drawn) [Compound 3, sinumaximol C]",70.7 ± 1.44 µM,Ki (recombinant human sEH [2]): 59.4 µM; Inhibition Type (recombinant human sEH [2]): Non-competitive
"C=C1CCC2(O)C(=C)COC2C=C(C)CCC2OC2(C)CCC1O (stereo not drawn) [Compound 4, sinumaximol D]",> 100 µM,
"C=C1CC=C2C(C=C(C)CCC3OC3(C)CCC1O)OCC2(C)O (stereo not drawn) [Compound 5, sinumaximol E]",> 100 µM,
"CC1=CC2OCC(C)(O)C2=CCC(C)(O)C=CCC2(C)OC2CC1 (stereo not drawn) [Compound 6, sinumaximol F]",> 100 µM,
"CC1=CC2OC(=O)C(C)=C2CCC(C)(O)C=CCC(C)(O)C(O)CC1 (stereo not drawn) [Compound 7, sinumaximol G]",> 100 µM,
"C=C1CCC2=C(C)COC2C=C(C)CCC(O)C(C)(O)CCC1O (stereo not drawn) [Compound 8, sinumaximol H]",> 100 µM,
"C=C(C)C1CC=C(C(=O)OC)CC(=O)CC(C)(O)C=C2C=C(C(=O)OC)C(OC)(C1)O2 (stereo not drawn) [Compound 9, sethukarailin]",78.8 ± 2.26 µM,Ki (recombinant human sEH [2]): 55 µM; Inhibition Type (recombinant human sEH [2]): Non-competitive
"C=C(C)[C@H]1CCC2=C[C@@H](C[C@@]3(C)CC(=O)[C@H](CC(=O)C1)O3)OC2=O [Compound 10, 5-epinorcembrene]",> 100 µM,
